Measured values published in patent publication US8772500B2, “TRPV3 modulators” (AbbVie Inc., priority 2011, dated 2014).

Columns and labels:
[1] = In vitro human microsomal stability assay; format: in vitro ADME; details: human, 0.5 h, 0.5 μM, pH 7.4
Description: (§1) Test compounds were evaluated for metabolic stability in an in vitro rat microsomal stability assay using rat (Sprague-Dawley, from BD Biosciences) liver microsomes and/or an in vitro human microsomal stability assay using human (Xenotech) liver microsomes. […] Incubations were carried out at 37° C. with a final incubation volume of 135 μL. […] A 1.5 μL aliquot of reduced nicotine adenine disphosphonucleotide (NADPH) (Chem-Impex Int'L Inc., Lot 12532024) was also added to the time-zero plates.

[2] = In vitro rat microsomal stability assay; format: in vitro ADME, rat (Sprague-Dawley); details: Sprague-Dawley, rat, 0.5 h, 0.5 μM, pH 7.4
Description: as §1

With OC1CC(c2ccc(C(F)(F)F)cc2)([C@@H](O)c2ccccn2)C1 (mixture of isomers) [Example 199, 3-[(R)-hydroxy(pyridin-2-yl)methyl]-3-[4-(trifluoromethyl)phenyl]-cyclobutanol] the “HUMAN MICROSOMAL STABILITY (% REMAINING AFTER 30 MINUTES)” value [1] was greater than 85% and the “RAT MICROSOMAL STABILITY (% REMAINING AFTER 30 MINUTES)” value [2] was greater than 85%.

In the case of OC(c1ccccn1)C1(c2cccc(F)c2)CCCO1 (single isomer, unassigned) [Example 101, (syn)-[2-(3-fluorophenyl)tetrahydrofuran-2-yl](pyridin-2-yl)methanol], the “HUMAN MICROSOMAL STABILITY (% REMAINING AFTER 30 MINUTES)” value [1] is reported as 40% and the “RAT MICROSOMAL STABILITY (% REMAINING AFTER 30 MINUTES)” value [2] is reported as 0.17%.

In the case of OC1CC(c2ccc(OC(F)(F)F)cc2)(C(O)c2ccccn2)C1 (single isomer, unassigned) [Example 131], the “HUMAN MICROSOMAL STABILITY (% REMAINING AFTER 30 MINUTES)” value [1] is reported as greater than 85% and the “RAT MICROSOMAL STABILITY (% REMAINING AFTER 30 MINUTES)” value [2] is reported as 50%.

With OC(C1CCCc2cccnc21)C1(c2ccc(OC(F)(F)F)cc2)CCC1 (single isomer, unassigned) [Example 178, (syn)-5,6,7,8-tetrahydroquinolin-8-yl{1-[4-(trifluoromethoxy)phenyl]-cyclobutyl}methanol] the “HUMAN MICROSOMAL STABILITY (% REMAINING AFTER 30 MINUTES)” value [1] was 9.2% and the “RAT MICROSOMAL STABILITY (% REMAINING AFTER 30 MINUTES)” value [2] was less than 0.01%.

With OC(C1CCCc2cccnc21)C1(c2cccc(C(F)(F)F)c2)CCC1 (single isomer, unassigned) [Example 180, (syn)-5,6,7,8-tetrahydroquinolin-8-yl{1-[3-(trifluoromethyl)phenyl]-cyclobutyl}methanol] the “HUMAN MICROSOMAL STABILITY (% REMAINING AFTER 30 MINUTES)” value [1] was less than 0.01% and the “RAT MICROSOMAL STABILITY (% REMAINING AFTER 30 MINUTES)” value [2] was less than 0.01%.

In the case of OC(C1CCCc2cccnc21)C1(c2ccc(Cl)c(Cl)c2)CCC1 (single isomer, unassigned) [Example 182, (syn)-[1-(3,4-dichlorophenyl)cyclobutyl][5,6,7,8-tetrahydroquinolin-8-yl]-methanol], the “HUMAN MICROSOMAL STABILITY (% REMAINING AFTER 30 MINUTES)” value [1] is reported as less than 0.01% and the “RAT MICROSOMAL STABILITY (% REMAINING AFTER 30 MINUTES)” value [2] is reported as less than 0.01%.

In the case of OC(C1CCCc2cccnc21)C1(c2ccc(C(F)(F)F)cc2)CCC1 (single isomer, unassigned) [Example 184, (syn)-5,6,7,8-tetrahydroquinolin-8-yl{1-[4-(trifluoromethyl)phenyl]-cyclobutyl}methanol], the “HUMAN MICROSOMAL STABILITY (% REMAINING AFTER 30 MINUTES)” value [1] is reported as 0.46% and the “RAT MICROSOMAL STABILITY (% REMAINING AFTER 30 MINUTES)” value [2] is reported as less than 0.01%.

In the case of OC1CC(c2ccc(Cl)c(Cl)c2)(C(O)c2ncccn2)C1 (single isomer, unassigned) [Example 313], the “HUMAN MICROSOMAL STABILITY (% REMAINING AFTER 30 MINUTES)” value [1] is reported as 81% and the “RAT MICROSOMAL STABILITY (% REMAINING AFTER 30 MINUTES)” value [2] is reported as greater than 85%.

With OC(c1ccccn1)C1(c2ccccn2)CCC1 (stereo not drawn) [Example 19, pyridin-2-yl(1-pyridin-2-ylcyclobutyl)methanol] the “HUMAN MICROSOMAL STABILITY (% REMAINING AFTER 30 MINUTES)” value [1] was greater than 85% and the “RAT MICROSOMAL STABILITY (% REMAINING AFTER 30 MINUTES)” value [2] was 76%.

In the case of OC(c1ccccn1)C1(c2cccnc2)CCC1 (stereo not drawn) [Example 20, pyridin-2-yl(1-pyridin-3-ylcyclobutyl)methanol], the “HUMAN MICROSOMAL STABILITY (% REMAINING AFTER 30 MINUTES)” value [1] is reported as 80% and the “RAT MICROSOMAL STABILITY (% REMAINING AFTER 30 MINUTES)” value [2] is reported as 81%.

For OC(c1ccccn1)C1(c2ccncc2)CCC1 (stereo not drawn) [Example 21, pyridin-2-yl(1-pyridin-4-ylcyclobutyl)methanol], the “HUMAN MICROSOMAL STABILITY (% REMAINING AFTER 30 MINUTES)” value [1] was 71% and the “RAT MICROSOMAL STABILITY (% REMAINING AFTER 30 MINUTES)” value [2] was 52%.

In the case of O[C@H](c1ncccn1)C1(c2ccc(C(F)(F)F)cc2)CCC1 [Example 41, (S)-pyrimidin-2-yl{1-[4-(trifluoromethyl)phenyl]cyclobutyl}methanol], the “HUMAN MICROSOMAL STABILITY (% REMAINING AFTER 30 MINUTES)” value [1] is reported as 54% and the “RAT MICROSOMAL STABILITY (% REMAINING AFTER 30 MINUTES)” value [2] is reported as 21%.

With O[C@@H](c1ncccn1)C1(c2ccc(C(F)(F)F)cc2)CCC1 [Example 42, (R)-pyrimidin-2-yl{1-[4-(trifluoromethyl)phenyl]cyclobutyl}methanol] the “HUMAN MICROSOMAL STABILITY (% REMAINING AFTER 30 MINUTES)” value [1] was 50% and the “RAT MICROSOMAL STABILITY (% REMAINING AFTER 30 MINUTES)” value [2] was 40%.

With OC(c1ccccn1)C1(c2ccc(Cl)c(Cl)c2)CCCCC1 (stereo not drawn) [Example 43, [1-(3,4-dichlorophenyl)cyclohexyl](pyridin-2-yl)methanol] the “HUMAN MICROSOMAL STABILITY (% REMAINING AFTER 30 MINUTES)” value [1] was 1.8% and the “RAT MICROSOMAL STABILITY (% REMAINING AFTER 30 MINUTES)” value [2] was 0.31%.

In the case of OC(c1ccccn1)C1(c2ccc(Cl)c(Cl)c2)COC1 (stereo not drawn) [Example 87, [3-(3,4-dichlorophenyl)oxetan-3-yl](pyridin-2-yl)methanol], the “HUMAN MICROSOMAL STABILITY (% REMAINING AFTER 30 MINUTES)” value [1] is reported as 47% and the “RAT MICROSOMAL STABILITY (% REMAINING AFTER 30 MINUTES)” value [2] is reported as 8.6%.
